Source: article PMC11530827, “Characterization of a cytochrome P450 that catalyzes the O-demethylation of lignin-derived benzoates” (The Journal of Biological Chemistry, 2024)

Assays:
PbdA R84M = biological target: T1, PbdA R84M (Rhodococcus jostii, UniProt Q0SCI3, R82M); assay: Substrate binding to PbdA R84M variant by spectral titration; design: species or system Rhodococcus jostii RHA1
T1 construct: hexaHis (N, cleaved yes); made in house; host or cells: PbdA variant: E. coli BL-21 λ (DE3); PbdB: Rhodococcus jostii RHA1
Experimental: (§1) UV-visible spectroscopy was conducted with a Cary 60 spectrophotometer equipped with a thermostatted cuvette holder at 25 °C. Scans of purified proteins diluted in 20 mM Mops, I = 0.1 M, pH 7.2 were taken between 250 and 700 nm. Heme concentration was calculated as described previously ([35]). Carbon monoxide binding was determined by reduction of PbdA diluted in 20 mM Mops, I = 0.1 M, pH 7.2 as above by a few grains of […]. CO was bubbled into the reduced enzyme for approximately 60 s at a rate of one bubble per second. Dissociation constants (Kd) were determined by titration of ligands diluted into enzyme buffer from 1 M stocks prepared in dimethyl sulfoxide into PbdA diluted in 20 mM Mops, I = 0.1 M, pH 7.2. Spectra take upon addition of substrate were subtracted from the spectrum of the enzyme, and peak-to-trough distance was plotted by ligand concentration. Kd values were determined by fitting a hyperbolic equation to the data as described previously ([23], [36]). The proportion of high-spin heme iron was determined using the approximate peak-to-trough extinction coefficient (ε ≈ 100 mM^−1 cm^−1) ([36]).

PbdA [1] = biological target: T2, PbdA (Rhodococcus jostii, UniProt Q0SCI3)
T2 sequence (Q0SCI3 1-400): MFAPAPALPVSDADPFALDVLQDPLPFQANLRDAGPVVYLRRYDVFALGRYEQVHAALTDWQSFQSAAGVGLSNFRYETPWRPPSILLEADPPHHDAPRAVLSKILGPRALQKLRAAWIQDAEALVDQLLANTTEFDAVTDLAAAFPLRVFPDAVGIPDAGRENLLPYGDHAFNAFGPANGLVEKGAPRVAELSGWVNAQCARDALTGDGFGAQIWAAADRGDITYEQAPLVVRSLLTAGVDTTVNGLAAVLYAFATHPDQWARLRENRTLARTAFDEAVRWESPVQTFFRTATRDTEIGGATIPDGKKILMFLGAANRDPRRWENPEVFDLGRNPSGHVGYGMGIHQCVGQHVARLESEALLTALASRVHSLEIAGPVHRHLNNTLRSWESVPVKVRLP
Experimental: We then measured coupling under optimum conditions for other substrates. […] Finally, we measured the apparent steady-state kinetic parameters of the PbdA reaction under conditions of maximal coupling (Fig. S4).
(§2) For activity measurements 0.25 to 1 μM of PbdA and PbdB were combined in a 200 μl cuvette in 20 mM Mops, pH 7.2 with substrate diluted in the same buffer. NADH was added to 350 μM to initiate the reaction. For HPLC analysis, enzymatic reactions were acidified by adding acetic acid to 10% final concentration, centrifuged (16,000×g for 10 min), and filtered through a 0.2 μm polytetrafluoroethylene membrane. Samples were run over a Luna 5 μm C18(2) 100 Å 150 × 3 mm column (Phenomenex) at 0.7 ml min^−1 by a Waters 2695 separation HPLC module. Samples were eluted with a 16.8 ml linear gradient from 1% methanol plus 0.1% formic acid in water to 100% methanol plus 0.1% formic acid and monitored at 280 nm with a Waters 2996 photodiode array detector. Concentrations were determined by interpolation on a standard curve of 0 to 1 mM of authentic standard. NADH concentration was measured by absorbance at 340 nm, ε = 6.22 mM^-1 cm^-1. Coupling was calculated from the ratio of rate of aromatic turnover, as determined by HPLC, and the rate of NADH oxidation, determined spectroscopically. Buffer ionic strength was adjusted by addition of NaCl, as appropriate. Apparent steady-state kinetic parameters were calculated by fitting Michaelis–Menten equations to initial velocity of reactions at various concentrations of aromatic substrate (LEONORA).

PbdA [2] = biological target: T2, PbdA; assay: Substrate binding to PbdA (WT) by type I spectral shift titration; design: hexaHis (N, cleaved yes); made in house; host or cells: PbdA: E. coli BL-21 λ (DE3); PbdB: Rhodococcus jostii RHA1; details: WT PbdA
Experimental: The affinity of PbdA for various LDACs was measured by the type I spectral shift upon titration of aromatic compound (Fig. 2). This shift occurs as the compound displaces a water coordinated to the heme iron, initiating a spin state transition in the latter from a low spin, hexacoordinate, to a high spin, pentacoordinate form.
Figure 2 Substrate binding of PbdA. A, difference spectra of PbdA titrated with 1 to 50 μM p-MBA from the substrate-free enzyme. Darker colors indicate higher concentration of p-MBA. Spectra were collected after each addition of substrate to 1 μM enzyme in 20 mM Mops, I = 0.1 M, pH 7.2. B, binding isotherm of PbdA and p-MBA. The fitted curve represents a simple hyperbola. p-MBA, para-methoxybenzoate.
as §1

PbdA S87A [3] = biological target: T3, PbdA S87A (Rhodococcus jostii, UniProt Q0SCI3, S85A); assay: Activity and coupling assay of PbdA S87A variant with PbdB; type: biochemical, Rhodococcus jostii RHA1
T3 construct: hexaHis (N, cleaved yes); made in house; host or cells: PbdA variant: E. coli BL-21 λ (DE3); PbdB: Rhodococcus jostii RHA1
Experimental: as §2
(§3) ^aExperiments were performed using air-saturated MOPS (I = 0.1 M), pH 7.2, at 25 °C. The rate of aromatic substrate turnover was based on the appearance of O-demethylated product. Standard deviation is shown in parentheses.

PbdA S237A = biological target: T4, PbdA S237A (Rhodococcus jostii, UniProt Q0SCI3, S235A); assay: Activity and coupling assay of PbdA S237A variant with PbdB; type: biochemical, Rhodococcus jostii RHA1
T4 construct: hexaHis (N, cleaved yes); made in house; host or cells: PbdA variant: E. coli BL-21 λ (DE3); PbdB: Rhodococcus jostii RHA1
Experimental: as §2, §3

PbdA S87A/S237A = biological target: T5, PbdA S87A/S237A (Rhodococcus jostii, UniProt Q0SCI3, S235A/S85A); assay: Substrate binding to PbdA S87A/S237A variant by spectral titration; design: species or system Rhodococcus jostii RHA1
T5 construct: hexaHis (N, cleaved yes); made in house; host or cells: PbdA variant: E. coli BL-21 λ (DE3); PbdB: Rhodococcus jostii RHA1
Experimental: as §1

PbdA S87A [4] = biological target: T3, PbdA S87A; assay: Substrate binding to PbdA S87A variant by spectral titration; design: species or system Rhodococcus jostii RHA1
Experimental: as §1

[5] = air-saturated MOPS (I = 0.1 M), pH 7.2, 25 °C
[6] = appearance of O-demethylated product

T1 sequence (Q0SCI3 entry or part of it R82M): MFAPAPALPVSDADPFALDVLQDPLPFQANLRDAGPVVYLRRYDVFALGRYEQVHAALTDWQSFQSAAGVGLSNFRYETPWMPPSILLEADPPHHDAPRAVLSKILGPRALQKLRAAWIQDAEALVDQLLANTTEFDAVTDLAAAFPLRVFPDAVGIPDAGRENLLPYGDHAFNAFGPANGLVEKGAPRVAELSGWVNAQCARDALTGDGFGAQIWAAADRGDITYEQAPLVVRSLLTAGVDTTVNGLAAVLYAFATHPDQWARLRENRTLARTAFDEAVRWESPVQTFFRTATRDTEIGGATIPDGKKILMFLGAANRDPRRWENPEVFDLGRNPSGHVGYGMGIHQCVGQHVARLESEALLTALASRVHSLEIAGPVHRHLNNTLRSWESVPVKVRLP
T5 sequence (Q0SCI3 entry or part of it S85A/S235A): as the sequence (Q0SCI3 entry or part of it R82M) above, with M82R, S85A, S235A counted along it
T4 sequence (Q0SCI3 entry or part of it S235A): as the sequence (Q0SCI3 entry or part of it R82M) above, with M82R, S235A counted along it
T3 sequence (Q0SCI3 entry or part of it S85A): as the sequence (Q0SCI3 entry or part of it R82M) above, with M82R, S85A counted along it

## COc1ccc(C(=O)O)cc1 [p-MBA, p-methoxybenzoate]
PbdA R84M
  Kd: 36 µM
PbdA R84M; R84M variant, binding energy
  ΔG°: -25.5 kJ/mol
PbdA R84M; R84M variant, comparison of ΔG° of variant to wild type
  ΔΔG°: 5.44 kJ/mol
PbdA [1]; WT PbdA with PbdB, air-saturated Mops (I = 0.1 M), pH 7.2, 25 °C, SD in parentheses
  kcat (apparent): 0.37 (0.02) s^−1
PbdA [1]; WT PbdA, O-demethylation, SD in brackets
  Specific activity: 2700 (100) U μg P450^-1
PbdA [1]; WT PbdAB, air-saturated MOPS (I = 0.1 M), pH 7.2, 25 °C, SD in parentheses
  NADH depletion rate: 2700 (100) U mg P450^-1
PbdA [1]; WT PbdAB, appearance of O-demethylated product (disappearance of p-EB), SD in parentheses
  Rate of Aromatic turnover: 2700 (200) U mg P450^-1
PbdA [1]; WT PbdAB, ratio of aromatic turnover rate to NADH oxidation rate
  Coupling: 100 (3) %
PbdA [1]; read-out: KM (apparent), WT PbdA with PbdB, air-saturated Mops (I = 0.1 M), pH 7.2, 25 °C, SD in parentheses
  Km: 18 µM
PbdA [2]; 20 mM Mops, I = 0.1 M, pH 7.2, 25 °C, SD in parentheses, read-out: Kd
  Kd: 3.8 µM
PbdA [2]; on substrate binding
  %High-spin (percent of heme iron in high-spin state): >99%
PbdA S87A [3]
  Coupling: 45 (7) %
PbdA S87A [3]; O-demethylation
  Specific activity: 800 (200) U μg P450^-1
PbdA S87A [3]; [5]
  NADH depletion rate: 1700 (200) U mg P450^-1
PbdA S87A [3]; [6]
  Rate of Aromatic turnover: 800 (200) U mg P450^-1
PbdA S237A
  Coupling: 80 (2) %
PbdA S237A; O-demethylation
  Specific activity: 2600 (400) U μg P450^-1
PbdA S237A; [5]
  NADH depletion rate: 3600 (600) U mg P450^-1
PbdA S237A; [6]
  Rate of Aromatic turnover: 2600 (400) U mg P450^-1
PbdA S87A/S237A
  Kd: 70 µM
PbdA S87A/S237A; S87A/S237A variant, binding energy
  ΔG°: -23.8 kJ/mol
PbdA S87A/S237A; S87A/S237A variant, comparison of ΔG° of variant to wild type
  ΔΔG°: 7.11 kJ/mol
PbdA S87A [4]
  Kd: 50 µM
PbdA S87A [4]; S87A variant, binding energy
  ΔG°: -24.7 kJ/mol
PbdA S87A [4]; S87A variant, comparison of ΔG° of variant to wild type
  ΔΔG°: 6.28 kJ/mol
